Several values for one entry are separate records, joined by “and”; a condition that tells them apart may be missing. Identical values can stand only once.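 48-hour exposure; five concentrations; linearly interpolated endpoints. GI50: concentration for 50% inhibition of growth. The concentration for full growth arrest is given as TGI.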
Columns and labels:
Test in all cases: DTP human tumour cell line panel, 48 h
786-0 renal = test system: 786-0 renal
HCT-116 colon = test system: HCT-116 colon
HCT-15 colon = test system: HCT-15 colon
MALME-3M melanoma = test system: MALME-3M melanoma
NCI-H226 lung = test system: NCI-H226 lung
NCI-H522 lung = test system: NCI-H522 lung
SK-MEL-2 melanoma = test system: SK-MEL-2 melanoma
SK-MEL-28 melanoma = test system: SK-MEL-28 melanoma
SK-MEL-5 melanoma = test system: SK-MEL-5 melanoma
SN12C renal = test system: SN12C renal

| SMILES | TGI (786-0 renal) | TGI (HCT-116 colon) | TGI (HCT-15 colon) | TGI (MALME-3M melanoma) | TGI (NCI-H226 lung) | TGI (NCI-H522 lung) | TGI (SK-MEL-2 melanoma) | TGI (SK-MEL-28 melanoma) | TGI (SK-MEL-5 melanoma) | TGI (SN12C renal) | GI50 (786-0 renal) | GI50 (HCT-116 colon) | GI50 (HCT-15 colon) | GI50 (MALME-3M melanoma) | GI50 (NCI-H226 lung) | GI50 (NCI-H522 lung) | GI50 (SK-MEL-2 melanoma) | GI50 (SK-MEL-28 melanoma) | GI50 (SK-MEL-5 melanoma) | GI50 (SN12C renal) |
| --- | --- | --- | --- | --- | --- | --- | --- | --- | --- | --- | --- | --- | --- | --- | --- | --- | --- | --- | --- | --- |
| O=S1(=O)NC2CCC3NS(=O)(=O)NC4CCC(N1)N4S(=O)(=O)N23 (stereo not given) | > 100 µM | > 100 µM | > 100 µM | > 100 µM | > 100 µM | > 100 µM | > 100 µM | > 100 µM | > 100 µM | > 100 µM |  |  |  |  |  |  |  |  |  |  |
| COC(=O)c1ccc2c(c1)C(=O)c1c-2n(C)c(=O)c2cc(OC)c(OC)cc12 | > 50 µM | > 50 µM | > 50 µM | > 50 µM | > 50 µM | > 50 µM | > 50 µM | > 50 µM | > 50 µM | > 50 µM | 21.8 µM | 40.1 µM | > 50 µM | > 50 µM | > 50 µM | > 50 µM | 37.8 µM | > 50 µM | > 50 µM | > 50 µM |
| CC(=O)[CH-]C(=O)c1ccccc1.CC(=O)[CH-]C(=O)c1ccccc1.CC[C@H](/C=C/C(C)[C@H]1CCC2[C@@H]3CC=C4C[C@@H]([O-])CC[C@]4(C)C3CC[C@@]21C)C(C)C.CC[O-].[Ti+4] (stereo not given in full) | > 100 µM | > 100 µM | > 100 µM | > 100 µM | > 100 µM | > 100 µM | > 100 µM | > 100 µM | > 100 µM | > 100 µM | > 100 µM | > 100 µM | > 100 µM | > 100 µM | > 100 µM | 44.8 µM | > 100 µM | > 100 µM | > 100 µM | > 100 µM |
| CCC(C)[C@H](NC(=O)NC(=O)NC(=O)CI)C(=O)OC (stereo not given in full) | 23.4 µM | 18.3 µM | 3.42 µM | 4 µM | 19.1 µM | 3.01 µM | 27.3 µM | 27.5 µM | 30.5 µM | 20.4 µM | 11.3 µM | 6.05 µM | 1.76 µM | 1.89 µM | 3.84 µM | 1.51 µM | 14.2 µM | 13.6 µM | 16.7 µM | 4.28 µM |
| CCCCCCCCCCC/C=C\C[C@H](O)C/C=C1/C(=O)C=C[C@@H]1C/C=C\CCCC(=O)OC | 3.98 µM | 1.83 µM | 1.29 µM | 2.41 µM | 1.76 µM | 2.36 µM | 5.67 µM | 2.31 µM | 1.17 µM | 2.29 µM | 1.03 µM | 0.734 µM | 0.59 µM | 0.803 µM | 0.732 µM | 0.753 µM | 1.46 µM | 0.84 µM | 0.603 µM | 0.841 µM |
| Cc1ccc(/C=C/C(=N/N=C(N)N)c2ccccc2)cc1 | 6.53 µM | 12.2 µM | 13.8 µM | 20.2 µM | 12.6 µM | 5.12 µM | 8.04 µM | 15.8 µM | 3.86 µM | 16.9 µM | 2.41 µM | 3.05 µM | 2.74 µM | 3.8 µM | 3.09 µM | 1.8 µM | 2.75 µM | 3.95 µM | 1.69 µM | 4.5 µM |
| CC1(C)CCCC(C)(C2CCC3(C)C2C(O)CC2C4(C)CCC(O)C(C)(C)C4C(O)CC23C)O1 (stereo not given) | 72.5 µM | > 100 µM | 24.7 µM | 50.1 µM | 40.1 µM | 29.8 µM | 28 µM | 28.2 µM | 17.6 µM | 30.8 µM |  |  |  |  |  |  |  |  |  |  |
| COC(=O)C[CH2][Ge]([CH3])([CH3])[S]c1ccccc1 | 45 µM | > 100 µM | 28.8 µM | > 100 µM | > 100 µM | 23.2 µM | 71.8 µM | > 100 µM | > 100 µM | 37.2 µM | 21.6 µM | 33.4 µM | 15.4 µM | > 100 µM | 27.4 µM | 10.8 µM | 27.4 µM | 36 µM | 32.6 µM | 18.3 µM |
| CSc1ccc2c(c1)N(CCC1CCCCN1C)c1ccccc1S2 (stereo not given) | 25.7 µM and 19.4 µM | 19 µM and 12.9 µM | 17.5 µM and 14.6 µM | 23.8 µM and 3.67 µM | 28.5 µM and 30.3 µM | 21.8 µM | 25.8 µM | 14.3 µM and 3.63 µM | 3.89 µM and 3.02 µM | 18.8 µM and 19.3 µM | 11.7 µM and 4.92 µM | 5.58 µM and 3.3 µM | 5.11 µM and 4.01 µM | 6.91 µM and 1.67 µM | 11.2 µM and 11.4 µM | 6.29 µM | 10.7 µM | 4.08 µM and 1.86 µM | 1.86 µM and 1.64 µM | 4.81 µM and 6.05 µM |
| O=C(N/C(=C\c1ccc(/C=C(\NC(=O)c2ccccc2)c2nc3cc(Cl)ccc3[nH]2)cc1)c1nc2cc(Cl)ccc2[nH]1)c1ccccc1 | > 100 µM | 66.2 µM | 76.1 µM | > 100 µM | > 100 µM | 53.8 µM | 99.6 µM | 53.8 µM | 47.8 µM | > 100 µM |  |  |  |  |  |  |  |  |  |  |
| COc1ccc(CNC(C)C(=O)O)cc1 (stereo not given) | > 100 µM | > 100 µM | > 100 µM | > 100 µM | > 100 µM | > 100 µM | > 100 µM | > 100 µM | > 100 µM | > 100 µM |  |  |  |  |  |  |  |  |  |  |
| Cc1cc2nc3ccc(=[N+](C)C)cc-3sc2cc1N | 10.1 µM and 17.7 µM and 4.3 µM | 1.2 µM and 5.03 µM and 0.98 µM | 10.9 µM and 18.6 µM and 6.98 µM | 1.8 µM and 6.42 µM and 0.782 µM | 9.05 µM and 30.9 µM and 7.69 µM | 1.66 µM and 8.94 µM and 10.3 µM | 5.62 µM and 17 µM and 8.27 µM | 4.65 µM and 27 µM and 3.56 µM | 0.324 µM and 1.81 µM and 1.33 µM | 3.7 µM and 10.6 µM and 2.52 µM | 1.82 µM and 0.76 µM | 0.226 µM and 0.232 µM | 0.384 µM and 0.63 µM | 0.384 µM and 0.223 µM | 2.11 µM and 1.82 µM | 0.274 µM and 1.57 µM | 1.31 µM and 2.26 µM | 1.64 µM and 1.65 µM | 0.145 µM and 0.284 µM | 0.821 µM and 1.15 µM |
| COC(C(=O)C(O)C(C)O)C1Cc2cc3cc(OC4CC(OC5CC(O)C(O)C(C)O5)C(O)C(C)O4)c(C)c(O)c3c(O)c2C(=O)C1OC1CC(OC2CC(O)C(OC3CC(C)(O)C(O)C(C)O3)C(C)O2)C(O)C(C)O1 (stereo not given) | 112 µg/mL and 64.7 µg/mL |  | 2.65 µg/mL and 1.5 µg/mL |  |  |  |  |  |  |  | 0.0112 µg/mL and 0.0152 µg/mL | 0.0112 µg/mL and 0.015 µg/mL | 0.244 µg/mL and 0.00299 µg/mL | 0.0112 µg/mL and 0.000642 µg/mL | 0.0112 µg/mL and 0.000196 µg/mL | 0.0112 µg/mL and 0.000596 µg/mL | 0.0112 µg/mL and 0.0015 µg/mL | 0.0112 µg/mL and 0.000611 µg/mL | 0.0112 µg/mL and 0.00186 µg/mL | 0.0112 µg/mL and 0.0011 µg/mL |
| N#Cc1ccsc1NC(=O)COC(=O)c1cccc(S(=O)(=O)N2CCc3ccccc32)c1 | > 100 µM | > 100 µM | > 100 µM | > 100 µM | > 100 µM | > 100 µM | > 100 µM | > 100 µM | > 100 µM |  | 47.3 µM | 4.78 µM | 3.25 µM | 75.8 µM | > 100 µM | 34.8 µM | > 100 µM | 22.4 µM | 21.1 µM |  |
| Cn1c(=O)c2ccc(-c3ccc(Br)cc3)nc2n(C)c1=O | > 100 µM | > 100 µM | > 100 µM | > 100 µM | > 100 µM | > 100 µM | > 100 µM | > 100 µM | > 100 µM |  |  |  |  |  |  |  |  |  |  |  |
| Cn1c2ccccc2c(=O)c2c(O)cc3c(c21)CC(C1(C)CO1)O3 (stereo not given) | 5.06 µM | 3.06 µM | 30.6 µM | 28.4 µM | 32 µM | 9.79 µM | 2.32 µM | 7.59 µM | 3.88 µM | 3.77 µM |  |  |  |  |  |  |  |  |  |  |
| CC(C)=CCC1=C(OCC(=O)O)C(=O)c2ccccc2C1=O | > 100 µM | 66.8 µM | > 100 µM | 35 µM | 90.1 µM | 57.4 µM | 84.2 µM | > 100 µM | 41.4 µM | 74.8 µM |  |  |  |  |  |  |  |  |  |  |
| CCN(Cc1ccccc1Cl)c1ccc(CO)c(Cl)c1 | 26.1 µM | 11.8 µM | 24 µM | 28.1 µM | 0.122 µM | 25.4 µM | 16.1 µM | 24.7 µM | 17.1 µM | 24 µM | 12.8 µM | 0.131 µM | 10.2 µM | 13.6 µM | 0.0295 µM | 11.5 µM | 2.39 µM | 11.8 µM | 4.11 µM | 11.5 µM |
| Clc1cc2c(nn1)Nc1ccccc1S2 | > 100 µM | > 100 µM | > 100 µM | > 100 µM | > 100 µM | > 100 µM | > 100 µM | > 100 µM | > 100 µM | > 100 µM | > 100 µM | > 100 µM | > 100 µM | > 100 µM | > 100 µM | > 100 µM | > 100 µM | > 100 µM | > 100 µM | > 100 µM |
| Cc1cc(=O)n2c3c(c4c(cc13)c(CO)cc(=O)n4C)OC2 | > 100 µM | 15.8 µM |  | 28.5 µM | 25.8 µM | 17.7 µM | 25.1 µM | 78.7 µM | 75.3 µM | > 100 µM |  |  |  |  |  |  |  |  |  |  |
| COc1ccc2c(c1)[n+]([O-])c(-c1ccc(Br)cc1)c(N)[n+]2[O-] | > 100 µM | > 100 µM |  | 60.1 µM | > 100 µM | 29.7 µM | > 100 µM | 71.5 µM | 36.5 µM | > 100 µM |  |  |  |  |  |  |  |  |  |  |
| Nc1ccccc1NC(=O)c1ccc(CN2CCC/C(=C\c3ccccn3)C2=O)cc1 | 30.2 µM | > 100 µM | > 100 µM | > 100 µM | 9.59 µM | 3.76 µM | 11.8 µM |  | 3.79 µM | > 100 µM | 2.71 µM | 0.381 µM | 1.11 µM | 1.01 µM | 2.62 µM | 0.51 µM | 1.57 µM |  | 1.46 µM | 2.59 µM |
